Here are results for 4 compounds from ChEMBL document CHEMBL3875147 (Eur J Med Chem, 2016).

Usually MIC stands for the lowest concentration found to suppress growth. Low values mean greater potency, high ones weaker potency.

Values after ≈ are worked out from the molar mass of the structure shown.

Data set [1] has as its system Enterococcus faecalis. The data set can be described thus: Potency index, ratio of MIC for ciprofloxacin to MIC for test compound for antibacterial activity against clinical isolate of Enterococcus faecalis. In kind it is functional.
Data set [2] has as its system Escherichia coli. The data set can be described thus: Antibacterial activity against Escherichia coli ATCC 25922 incubated for 18 to 24 hrs by micro-dilution method. In kind it is functional. A general note: Broth dilution looks for growth in wells or tubes with falling amounts of substance.
A further data set deals with Salmonella typhimurium. The data set can be described thus: Antibacterial activity against clinical isolate of Salmonella typhimurium incubated for 18 to 24 hrs by micro-dilution method. In kind it is functional, Salmonella enterica subsp. enterica serovar Typhimurium. To be noted: Salmonella enterica.
The test system of data set [3] is Staphylococcus aureus. Briefly: Antibacterial activity against Staphylococcus aureus ATCC 25923 incubated for 18 to 24 hrs by micro-dilution method. The class given is functional.
For data set [4], the system named is Pseudomonas aeruginosa. The data set can be described thus: Antibacterial activity against Pseudomonas aeruginosa ATCC 27853 incubated for 18 to 24 hrs by micro-dilution method. The class given is functional.
Data set [5] deals with Pseudomonas aeruginosa. The data set can be described thus: Antibacterial activity against clinical isolate of Pseudomonas aeruginosa incubated for 18 to 24 hrs by micro-dilution method. The class given is functional.
The test system of a further data set is Salmonella typhi. Briefly: Antibacterial activity against clinical isolate of Salmonella typhi incubated for 18 to 24 hrs by micro-dilution method. The class given is functional, Salmonella enterica subsp. enterica serovar Typhi. To be noted: Salmonella enterica.
Data set [6] is described as follows: Hemolytic activity in human RBC at 100 uM measured after 1 hr by UV-vis absorbance method relative to control. The class given is ADME, cell-based, Erythrocyte. To be noted: red blood cells (RBC), read-out: Activity.
A short description of data set [7]: Antibacterial activity against Aeromonas hydrophila ATCC 7966 incubated for 18 to 24 hrs by micro-dilution method. In kind it is functional, Aeromonas hydrophila subsp. hydrophila ATCC 7966.
The test system of data set [8] is Enterococcus faecalis. The data set can be described thus: Antibacterial activity against clinical isolate of Enterococcus faecalis incubated for 18 to 24 hrs by micro-dilution method. The class given is functional.
The subject of data set [9] is Sphingomonas paucimobilis. Briefly: Antibacterial activity against Sphingomonas paucimobilis MTCC 6362 incubated for 18 to 24 hrs by micro-dilution method. In kind it is functional.
The test system of data set [10] is Staphylococcus epidermidis. Briefly: Antibacterial activity against Staphylococcus epidermidis ATCC 35984 incubated for 18 to 24 hrs by micro-dilution method. To be noted: RP62A. The class given is functional.
Data set [11] has as its system Plesiomonas shigelloides. Briefly: Antibacterial activity against Plesiomonas shigelloides ATCC 14029 incubated for 18 to 24 hrs by micro-dilution method. The class given is functional.
Data set [12] relates to Staphylococcus aureus. The data set can be described thus: Potency index, ratio of MIC for ciprofloxacin to MIC for test compound for antibacterial activity against Staphylococcus aureus ATCC 25923. In kind it is functional.
Data set [13] relates to Staphylococcus epidermidis. The data set can be described thus: Potency index, ratio of MIC for ciprofloxacin to MIC for test compound for antibacterial activity against Staphylococcus epidermidis ATCC 35984. The class given is functional, RP62A.
The test system of data set [14] is Plesiomonas shigelloides. The data set can be described thus: Potency index, ratio of MIC for ciprofloxacin to MIC for test compound for antibacterial activity against Plesiomonas shigelloides ATCC 14029. In kind it is functional.
Data set [15] has as its system Escherichia coli. The data set can be described thus: Potency index, ratio of MIC for ciprofloxacin to MIC for test compound for antibacterial activity against Escherichia coli ATCC 25922. The class given is functional.

With `O=C(OCc1cn(-c2ccc(OC(F)(F)F)cc2)nn1)c1cn(C2CC2)c2cc(N3CCN(Cc4cn(-c5ccc(OC(F)(F)F)cc5)nn4)CC3)c(F)cc2c1=O`, the Ratio in the data set on Enterococcus faecalis [1] stood at 19. For the same compound, the MIC in the data set with Escherichia coli [2] stood at 3.84 µM (≈ 3.12 µg/mL); in the data set with Salmonella typhimurium, 3.84 µM (≈ 3.12 µg/mL); against Staphylococcus aureus [3], 3.84 µM (≈ 3.12 µg/mL); with Pseudomonas aeruginosa [4], 3.84 µM (≈ 3.12 µg/mL); against Pseudomonas aeruginosa [5] it was 15.4 µM (≈ 12.5 µg/mL); in the data set on Salmonella typhi, 30.7 µM (≈ 25 µg/mL). Also, the minimum inhibitory concentration (MIC) in [7] came out at 3.84 µM (≈ 3.12 µg/mL); against Enterococcus faecalis [8], 0.96 µM (≈ 0.781 µg/mL); in data set [9], 15.4 µM (≈ 12.5 µg/mL); in data set [10], 1.92 µM (≈ 1.56 µg/mL); against Plesiomonas shigelloides [11], 15.4 µM (≈ 12.5 µg/mL). Also, the hemolysis at 1 h, 100 µM in data set [6] stood at 9.75%.
In the case of `C#CCOC(=O)c1cn(C2CC2)c2cc(N3CCN(CC#C)CC3)c(F)cc2c1=O`, the MIC against Escherichia coli [2] came out at 1.92 µM (≈ 0.782 µg/mL); against Salmonella typhimurium, 7.67 µM (≈ 3.13 µg/mL); in the data set with Staphylococcus aureus [3], 1.92 µM (≈ 0.782 µg/mL); in the data set with Pseudomonas aeruginosa [4] it was 7.67 µM (≈ 3.13 µg/mL); against Pseudomonas aeruginosa [5], 15.3 µM (≈ 6.25 µg/mL); against Salmonella typhi, 30.7 µM (≈ 12.5 µg/mL). Also, the MIC in [7] worked out at 61.4 µM (≈ 25 µg/mL); against Enterococcus faecalis [8], 30.7 µM (≈ 12.5 µg/mL); in [9], 30.7 µM (≈ 12.5 µg/mL); in data set [10], 1.92 µM (≈ 0.782 µg/mL); against Plesiomonas shigelloides [11], 1.92 µM (≈ 0.782 µg/mL). Besides, the Ratio (in the data set with Staphylococcus aureus [12]; in [13]; with Plesiomonas shigelloides [14]; in the data set with Escherichia coli [15]) was 5 - 10 throughout. Also, in data set [6], the hemolysis at 1 h, 100 µM amounted to 4.57%.
With `O=C(OCc1cn(-c2cccc(Cl)c2)nn1)c1cn(C2CC2)c2cc(N3CCN(Cc4cn(-c5cccc(Cl)c5)nn4)CC3)c(F)cc2c1=O`, the MIC was found to be 1.09 µM (≈ 0.779 µg/mL) with Escherichia coli [2]; 17.5 µM (≈ 12.5 µg/mL) in the data set with Salmonella typhimurium; 1.09 µM (≈ 0.779 µg/mL) against Staphylococcus aureus [3]; 17.5 µM (≈ 12.5 µg/mL) in the data set on Pseudomonas aeruginosa [4]; 35 µM (≈ 25 µg/mL) in the data set on Pseudomonas aeruginosa [5]; 140 µM (≈ 100 µg/mL) against Salmonella typhi. Besides, the MIC in data set [7] turned out to be 35 µM (≈ 25 µg/mL); against Enterococcus faecalis [8], 8.75 µM (≈ 6.25 µg/mL); in data set [9] it was 17.5 µM (≈ 12.5 µg/mL); in data set [10] it was 1.09 µM (≈ 0.779 µg/mL); against Plesiomonas shigelloides [11] it was 1.09 µM (≈ 0.779 µg/mL). Moreover, the Ratio (in the data set on Staphylococcus aureus [12]; in [13]; in the data set with Plesiomonas shigelloides [14]; in the data set on Escherichia coli [15]) was 8 - 17 in each case. Further, the hemolysis at 1 h, 100 µM in data set [6] worked out at 24.2%.
Regarding `O=C(OCc1cn(-c2ccccc2)nn1)c1cn(C2CC2)c2cc(N3CCN(Cc4cn(-c5ccccc5)nn4)CC3)c(F)cc2c1=O`, the MIC in the data set with Escherichia coli [2] is more than 155 µM; with Salmonella typhimurium, more than 155 µM; in the data set with Staphylococcus aureus [3], 38.7 µM (≈ 25 µg/mL); against Pseudomonas aeruginosa [4] it was more than 155 µM; in the data set with Pseudomonas aeruginosa [5], more than 155 µM; against Salmonella typhi, more than 155 µM. Moreover, the MIC is more than 155 µM in [7]; more than 155 µM with Enterococcus faecalis [8]; more than 155 µM in data set [9]; 38.7 µM (≈ 25 µg/mL) in [10]; 9.68 µM (≈ 6.25 µg/mL) against Plesiomonas shigelloides [11]. Moreover, the hemolysis at 1 h, 100 µM in data set [6] stood at 4.65%.
